From patent US20210038668A1, “TRADITIONAL CHINESE MEDICINE COMPOSITION FOR PREVENTING AND/OR TREATING ISCHEMIC REPERFUSION INJURY” (TASLY PHARMACEUTICAL GROUP CO., LTD., priority 2018, published 2021)

Assays:
[1] = system: mice with carotid artery thrombus; assay: Survival rate within 24 hours after administration; type: in vivo, C57BL/6 mice; conditions: tPA 10 mg/kg alone
Procedure: Mice were anesthetized via intraperitoneal injection by pentobarbital sodium (2%, 45 mg/kg), and neck kin was sterilized. A median incision was cut on the neck, exposed and isolated to obtain arteria carotis communis; a waterproof cushion was used to isolate arteria carotis communis with the length of about 2.5-3 mm from surrounding tissues. The isolated arteria carotis communis was wrapped by a filter paper soaked by 10% FeCl3 for about 1 mm (width), and the filter paper was removed 3 minutes later, the outside of blood vessel was washed by 0.9% normal saline. The waterproof cushion was removed. The neck incision was sutured. The start of Fe3+ stimulation was defined as the beginning of ischemia, and those mice meeting the following conditions were selected into the group: the blood vessel was blocked at the maximum diameter of the neck thrombus 10 minutes after ischemia; the blood flow of the carotid artery distal end was less than 20% of the base value 15 minutes after ischemia; and the thrombus was stable 4.5 hours after ischemia (before reperfusion); the carotid artery vessel at 60% and more of the diameter was blocked by the maximum diameter of the thrombus.
Mice were treated by medicaments or normal saline according to random grouping results 4.5 hours after ischemia. Mice femoral vein was intubated, and left femoral vein was injected tPA (tissue plasminogen activator) or normal saline; right femoral vein was injected the traditional Chinese medicinal composition of the present invention or normal saline; 10% of the total dose was injected via an injection pump, and the rest 90% were continuously injected intravenously for 1 hour with the rate of 0.1 ml/h. Three proportion groups were selected to the traditional Chinese medicinal composition of the present invention respectively below:
The survival rate, neurological scoring, change of carotid artery ischemia size and change of cerebral blood flow perfusion of mice after reperfused for 24 hours were recorded; and the optimal drug concentration was selected for further analysis.

[2] = system: brain tissue (blood brain barrier leakage); assay: Evens Blue leakage in brain tissue; type: in vivo, C57BL/6 mice; conditions: 24 h after administration; method: microgram Evens Blue per gram brain tissue; tPA 10 mg/kg alone; T541 20 mg/kg + tPA 10 mg/kg
Procedure: Evens Blue leakage: after reperfused for 21 hours, mice were slowly injected an Evens Blue dye (2%, 4 ml/kg) dissolving in normal saline via femoral vein. 3 hours later, mice were perfused 15-20 ml of normal saline till auricula dextra flows colourless liquid, then the brain was immediately separated and immobilized in a 3% paraformaldehyde for 3 hours, then taken out, the brain was cut into 5 slices and shoot; left and right brain was separated and respectively weighed. Left and right brain was respectively added to an EP tube containing 1 ml of 50% trichloroacetic acid, homogenated and centrifuged to obtain the supernatant. An Evens Blue standard was prepared and the content of Evens Blue was detected by a multimode reader (exciting light: 620 nm, emitting light: 680 nm). The content of Evens Blue was denoted by the microgram of Evens Blue in per gram of brain tissue.

[3] = system: Claudin-5; assay: Western blotting of Claudin-5, endothelial cells after hypoxia/reoxygenation; type: cell-based; conditions: rat brain endothelial cells, hypoxia 4.5 h/reoxygenation 3 h; tPA 20 mcg/ml alone (model group); T541 400 mcg/ml + tPA 20 mcg/ml
Excerpt: (§1) Establishment of rat brain endothelial cell H/R model: rat brain endothelial cells were purchased from ATCC, and then subcultured to 5-6 generations in normal conditions for further experiment. […]

[4] = system: JAM-1; assay: Western blotting of JAM-1, endothelial cells after hypoxia/reoxygenation; type: cell-based; conditions: rat brain endothelial cells, hypoxia 4.5 h/reoxygenation 3 h; tPA 20 mcg/ml alone (model group); T541 400 mcg/ml + tPA 20 mcg/ml
Excerpt: as §1

[5] = system: mitochondrial complex IV; assay: Mitochondrial complex IV activity in brain tissue; type: in vivo, C57BL/6 mice; conditions: brain tissue 24 hours after administration; tPA 10 mg/kg alone or + T541 20 mg/kg or ingredients at Table 7 doses
Excerpt: To compare the therapeutical effect on reperfusion injury caused by tPA thrombolysis between the traditional Chinese medicinal composition of the present invention and each ingredient (total saponins of Astragalus, the experiment was divided into the following group (tPA is combined with T541, individual ingredient thereof and compatibility of any two ingredients) specifically as follows: tPA+total saponins of Astragalus (tPA+HQ), tPA+ salvianolic acids (tPA+DS), tPA+Panax notoginseng saponins (tPA+SQ), tPA+ total saponins of Astragalus+salvianolic acids (tPA+HQ+DS), tPA+ total saponins of Astragalus+Panax notoginseng saponins (tPA+HQ+SQ), tPA+ salvianolic acids+Panax notoginseng saponins (tPA+DS+SQ) and tPA+T541. Normal saline served as an isovolumetric control. The usage number in each group is 6.
ELISA adsorption kit was used to measure the change on the content of MDA, 8-hydroxyl-2′-deoxyguanosine (8-OHdG), adenosine triphosphate (ATP), adenosine diphosphate (ADP) and adenosine monophosphate (AMP) in the penumbra field of brain tissue cortex of the mode, and the change on the activity of mitochondrial complexes I, II, IV and V. 6 samples were used to repeat the independent experiment for at least three times for each group of data.

[6] = T141 12 mg/kg, T582 15 mg/kg each + tPA 10 mg/kg
[7] = T541 20 mg/kg, T141 12 mg/kg, T582 15 mg/kg each + tPA 10 mg/kg

Substance: tPA: tissue-type plasminogen activator (tPA) for thrombolysis
- survival rate (%), 6 h after administration [1, 6]: 70.00%
- survival rate (%), 12 h after administration [1, 6]: 60.00%
- survival rate (%), 18 h after administration ([1]; T541 20 mg/kg + tPA 10 mg/kg): 50.00%
- survival rate (%), 0 h after administration [1, 7]: 100.00%
- survival rate (%), 24 h after administration [1, 7]: 50%
- Evens Blue leakage [2]: 17.55 ± 1.23
- Claudin-5/β-actin [3]: 0.40 ± 0.06
- JAM-1/β-actin [4]: 0.64 ± 0.05
- Complex IV activity [5]: 0.267 ± 0.016
